The values below come from EP0222912A1, “AGENT FOR TREATING ARTERIOSCLEROSIS” (ZERIA SHINYAKU KOGYO KABUSHIKI KAISHA, priority 1984, dated 1985).

Common to all, as to assay type: in vivo
The test system of data set [1] is male SD rats. On the procedure: In order to examine the effect of decreasing lipids, male SD rats aged four weeks were classified into the following four groups: i.e. (1) an ordinary diet group (control); (2) a cholesterol diet group; (3) a cholesterol diet group to which cycloartenol ferulate was administered; and (4) a cholesterol diet group to which γ-oryzanol was administered.
Cycloartenol ferulate or γ-oryzanol was orally administered for 12 days repeatedly with the use of a metal probe. Each compound was administered in doses of 100 mg/kg, 500 mg/kg and 1000 mg/kg per animal a day. After each administration, blood of the animal was collected to determine free cholesterol (FC), triglyceride (TG) and phospholipids (PL) contained therein.

Data set [2] relates to male SD rats. Briefly: hyperlipemia induced by Triton WR-1339. The note with it: 10 mg/kg intravenously with 300 mg/kg Triton WR-1339, blood 43 hours after injection. The protocol: In order to examine the mechanism of the lipid decreasing effect of cycloartenol ferulate the effect of the same on hyperlipemia induced by a surfactant (Triton WR-1339) was confirmed.
The test was conducted with male SD rats aged six weeks. 300 mg/kg of Triton WR-1339 was intravenously injected to each rat of the first group to thereby induce hyperlipemia (Triton control group), while 10 mg/kg of cycloartenol ferulate or 10 mg/kg of γ-oryzanol was intravenously injected simultaneously with 300 mg/kg of Triton WR-1339 to each rat of other groups, thus examining the effect of decreasing lipids. Blood of each animal was collected 43 hours after the intravenous injection.

A further data set has as its system dd mice. Briefly: acute toxicity, oral, mice. The note with it: 5 g/kg orally, five dd mice. An excerpt:
(§1) In order to examine the acute toxicity of cycloartenol ferulate, it was orally administered to five dd mice and five SD rats.

Another data set deals with SD rats. Briefly: acute toxicity, oral, rats. The following applies: 5 g/kg orally, five SD rats.
Description: as §1

Consider `COc1cc(/C=C/C(=O)O[C@H]2CC[C@]34C[C@]35CC[C@]3(C)[C@@H]([C@H](C)CCC=C(C)C)CC[C@@]3(C)[C@@H]5CC[C@H]4C2(C)C)ccc1O` [cycloartenol ferulate], for which the “free cholesterol (FC)” value in the data set with male SD rats [1] (blood, cholesterol diet, oral, 12 days, 100, 500 and 1000 mg/kg a day, vs cholesterol diet group (Fig. 5)) was “lower than that of the cholesterol diet group to a statistically significant extent”. The “triglyceride (TG)” value in the data set with male SD rats [1] (blood, cholesterol diet, oral, 12 days, 100, 500 and 1000 mg/kg a day, vs cholesterol diet group (Fig. 6)) was “lower than that of the cholesterol diet group to a statistically significant extent”. For the same molecule, in the data set on male SD rats [1] (blood, cholesterol diet, oral, 12 days, 100, 500 and 1000 mg/kg a day, vs cholesterol diet group (Fig. 7)), the “phospholipids (PL)” value is listed as “lower than that of the cholesterol diet group to a statistically significant extent”. Moreover, the body weight gain entry with male SD rats [1] (cholesterol diet suppresses body weight gain, oral, 12 days (Fig. 12)) is recorded as “accelerated the growth of animals”. Further, the arteriosclerosis index result with male SD rats [1] (cholesterol diet, oral, 12 days (Fig. 9)) was “remarkably lowers this index”. Also, the “HDL-cholesterol (HDLC)” value in the data set on male SD rats [1] (cholesterol diet, oral, 12 days, vs cholesterol diet group (Fig. 8)) is listed as “increase HDLC to a statistically significant extent”. Moreover, in the data set on male SD rats [1] (rat, in vivo, po), the GOT result is on record as “no changes” and the GPT entry was “no changes”. Further, the TC result with male SD rats [2] (vs Triton control group and γ-oryzanol group (Fig. 13)) is given as “significant decreases”. Further, in the data set with male SD rats [2] (vs Triton control group and γ-oryzanol group (Fig. 14)), the FC entry is “significant decreases”. Further, the TG result in the data set with male SD rats [2] (vs Triton control group and γ-oryzanol group (Fig. 15)) is on record as “significant decreases”. The acute toxicity entry with dd mice is “no animal died nor showed any toxic symptom”. In the data set on SD rats, the acute toxicity result is given as “no animal died nor showed any toxic symptom”.
